Experimental data reported in article PMC9561414 (2022).
Each block holds one molecule with its values, some of them ahead of it.

How the values were obtained:
Assay in all cases: RelE cleavage translation initiation assay (PAGE)
[1] = test system: Pae Gdm WT (RNA, riboswitch) GGUUUCAGCCGGAAGCGGGACGACCCGUUUUCCCUCUUUCAUUGCGCGGGGACGACCCUGCAGAGAGGCUGAAAAUGUAGUGGAUCUAUCUCUUGCUCGUA; conditions: 30 mM K+ (KCl), 7 mM Mg2+, 70 mM NH4Cl, 50 mM HEPES-KOH pH 7.5, 37 °C, 70S ribosomes, IFs
[2] = test system: Pae Gdm OFF (RNA, riboswitch) GGUUUCAGCCGGAAGCGGGAAAACCCGUUUUCCCUCUUUCAUUGCGCGGGGACGACCCUGCAGAGAGGCUGAAAAUGUAGUGGAUCUAUCUCUUGCUCGUA; conditions: 30 mM K+ (KCl), 7 mM Mg2+, 70 mM NH4Cl; 50 mM HEPES-KOH pH 7.5, 37 °C, 70S ribosomes, IFs; no response up to 25 mM guanidine
[3] = test system: Vvu add U61C (RNA, riboswitch) GCUUCAUAUAAUCCUAAUGAUAUGGUUUGGGAGUUUCUACCAAGAGCCUUAAACUCUUGACUAUGAAGUCUGUCGCUUUAUCCGAAAUUUUAUAAAGAGAAGACUCAUGUAGAAUUACUUUGACCUGCCG; conditions: 30 mM K+ (KCl), 7 mM Mg2+, 70 mM NH4Cl, 50 mM HEPES-KOH pH 7.5, 37 °C, 70S ribosomes, IFs
[4] = test system: Vvu add (WT) (RNA, riboswitch) GCUUCAUAUAAUCCUAAUGAUAUGGUUUGGGAGUUUCUACCAAGAGCCUUAAACUCUUGAUUAUGAAGUCUGUCGCUUUAUCCGAAAUUUUAUAAAGAGAAGACUCAUGUAGAAUUACUUUGACCUGCCG; conditions: 30 mM K+ (KCl), 7 mM Mg2+, 70 mM NH4Cl; 50 mM HEPES-KOH pH 7.5, 37 °C, 70S ribosomes, IFs; apparent

K1/2 ([1]; apparent, Hill 1.5 ± 0.2): 2.2 ± 0.2 mM
binding [2]: no
SMILES: N=C(N)N

binding ([1]; no modulation at 50 mM urea): no
SMILES: NC(N)=O

K1/2 ([3]; apparent): 87 ± 3 nM
SMILES: Nc1nc2[nH]cnc2c(=O)[nH]1

K1/2 [4]: 1.4 ± 0.7 µM
binding ([3]; no response up to 500 μM adenine): no
SMILES: Nc1ncnc2[nH]cnc12
